According to patent publication US7722863B2, “Use of granzyme b as an hsp70/hsp70 peptide dependent inducer of apoptosis in tumor cells” (Multimmune GmbH, priority 2002, dated 2010):

Tests used:
Assay in all cases: Annexin V-FITC apoptosis assay (flow cytometry)
[1] = system: Hsp70 membrane-negative CX− cells; assay type: cell-based, human; conditions: for apoptosis in CX− cells: camptothecin 4 μg/ml or granzyme B 6 ng/ml
Procedure: (§1) Exponentially growing tumor cells (day 1 after cell passage) were used for granzyme B, camptothecin treatment and as targets in cytotoxicity assays.
(§2) Stock solutions of camptothecin (4 mg/ml, Sigma, Munich, Germany) were diluted in DMSO and stored at 4° C. in the dark. Granzyme B (6 ng/ml, Hölzel Diagnostics, Cologne, Germany) solutions were freshly prepared directly before usage. Exponentially growing cells (0.5-1.5×10^6/ml) were incubated either with camptothecin at a final concentration of 4 μg/ml or with purified, enzymatically active granzyme B (10 ng/ml, 1 μg/ml, 2 μg/ml; 4 μg/ml) (Shi et. al. (2000) Methods in Enzymology 322, 125) for 10 min, and 30 min either at 4° C. or at 37° C. After washing in RPMI-1640 medium binding and uptake was determined in nonpermeabilized and permeabilized tumor cells by flow cytometry and fluorescence microscopy on a Axioscop 25 scanning microscope (Zeiss, Jena, Germany) equipped with a 40× objective and standard filters. Images were treated by multiplicative shading correction using the software Axiovison (Zeiss Vison, Jena, Germany). Granzyme B was visualized in red by using the HC2-PE antibody.
(§3) Apoptotic Cell Death was Determined after Incubation of Tumor Cells with 6 ng/ml Granzyme B for 4 h, 12 h, and 24 h at 37° C. and Washing in RPMI-1640 Medium by Different Apoptosis Assays, as Described Below. Apoptosis Assays
(§4) Annexin V-FITC staining: Briefly, cells were washed twice in Hepes buffer containing 5 mM CaCl2 and incubated with Annexin V-FITC (Roche) for 10 min at room temperature. Annexin V-FITC positively stained cells were measured on a FACSCalibur flow cytometer (Becton Dickinson, Heidelberg, Germany).
(§5) The preceding findings posed the question whether purified granzyme B can induce apoptosis of tumor cells that present Hsp70 on their cell surface. […] As a positive control for apoptosis all cell types were incubated with the topoisomerase inhibitor camptothecin at a concentration of 4 μg/ml. Apoptosis was determined by Annexin V-FITC staining measured by FACS (FACSCalibur, Becton Dickinson, Heidelberg, Germany), DAPI staining and mitochondrial cytochrome c release. Apoptosis was not detected in CX+ and CX− cells incubated with camptothecin (cam) or granzyme B (grB) for 4 h incubation (FIG. 3A). […] It appeared that the colon carcinoma sublines CX+/CX− are better protected towards a camptothecin-mediated cell death as compared to the pancreas carcinoma sublines Colo+/Colo−.

[2] = system: Hsp70 membrane-negative Colo− cells; assay type: cell-based, human; conditions: 12 h and 24 h; camptothecin 4 μg/ml or granzyme B 6 ng/ml
Procedure: as §1, §2, §3, §4, §5

[3] = system: Hsp70 membrane-positive CX+ cells; assay type: cell-based, human; conditions: for apoptosis in CX+ cells / amount of Annexin V-FITC positively stained CX+ cells / fold increase of Annexin V-FITC positively stained CX+ cells: camptothecin 4 μg/ml or granzyme B 6 ng/ml; for fold increase of Annexin V-FITC positively stained CX+ cells: versus untreated
Procedure: as §1, §2, §3, §4, §5

[4] = system: Hsp70 membrane-positive Colo+ cells; assay type: cell-based, human; conditions: granzyme B 6 ng/ml
Procedure: as §1, §2, §3, §4, §5

[5] = system: Hsp70 membrane-positive leukemic cell line K562; assay type: cell-based; conditions: granzyme B
Procedure: as §1, §4
Similarly, a 1.3-fold and a 2.4-fold increase in the amount of Annexin V-FITC positively stained Colo+ cells were observed after 12 h and 24 h, respectively. […] A comparative Annexin V-FITC staining pattern of CX+ and CX− cells treated with granzyme B for 24 h, is illustrated in FIG. 3B. […] The amount of Annexin V-FITC positively stained K562 cells increased from 8.7% up to 16% (1.8-fold).

granzyme B
apoptosis in CX− cells ([1]; 4 h incubation): not detected | apoptosis in CX− cells ([1]; 12 h and 24 h): neither a 12 h nor a 24 h treatment with granzyme B induces apoptosis | amount of apoptotic CX− cells before and after treatment ([1]; 24 h granzyme B, FIG. 3B): remained unaltered | apoptosis in Colo− cells [2]: neither a 12 h nor a 24 h treatment with granzyme B induces apoptosis | apoptosis in CX+ cells ([3]; 4 h incubation): not detected | amount of Annexin V-FITC positively stained CX+ cells ([3]; 12 h, untreated 16.6%): 20.9% | fold increase of Annexin V-FITC positively stained CX+ cells ([3]; 12 h): 1.3 fold | apoptosis in CX+ cells ([3]; 12 h and 24 h): apoptosis was observed | amount of Annexin V-FITC positively stained CX+ cells ([3]; 24 h, untreated 18%): 30.2% | fold increase of Annexin V-FITC positively stained CX+ cells ([3]; 24 h): 1.8 fold | fold increase of Annexin V-FITC positively and PI negatively stained CX+ cells ([3]; 24 h granzyme B, representative analysis FIG. 3B): 1.7 fold | amount of Annexin V-FITC positively and propidium iodide (PI) negatively stained CX+ cells ([3]; 24 h granzyme B, representative analysis FIG. 3B, untreated control 18%): 30% | fold increase in the amount of Annexin V-FITC positively stained Colo+ cells ([4]; 12 h): 1.3 fold | fold increase in the amount of Annexin V-FITC positively stained Colo+ cells ([4]; 24 h): 2.4 fold | amount of Annexin V-FITC positively stained K562 cells ([5]; untreated 8.7%, data not shown): 16% | fold increase of Annexin V-FITC positively stained K562 cells ([5]; versus untreated): 1.8 fold
